Source: patent US20140057841A1, “HUMAN INSULIN AND ANALOG CONJUGATE THEREOF” (Chongqing Fagen Biomedical Inc., priority 2011, published 2014)
Read-outs that look alike come from different tables or passages of the source.

Key:
[1] = test system: Type 1 diabetes model of KunMing mice; test: Blood sugar lowering in mice Type 1 diabetes model; assay type: in vivo; conditions: subcutaneous 0.25 mg/kg, STZ mice; for time the blood sugar lowering effect may sustain: empty stomach blood sugar
Experimental: 70 healthy KunMing male SPF mice (purchased from the Third Military Medical Univ., China) with body weight of 25-30 g were fed with water only and no food for 14 hours, and then subject to 120 mg/kg of rapid intraperitoneal injection of streptozotocin (STZ) solution (4.8 mg/ml) that was prepared with citric acid- trisodium citrate buffer, to establish a Type 1 diabetes model. After the injection, the mice were immediately fed with food and water. After 48 hours of model establishing, blood was sampled from caudal vein, and blood sugar value was detected with glucometer (Bayer's Fast Glucometer) after fasting for 2 hours, wherein a blood sugar value of >11.1 mmol/L indicates successful modeling. […] Groups B, C, and D were respectively subject to subcutaneous administration by a dosage of 0.25 mg/kg, and group A was injected with isovolumetric solvent. Before administration (i.e., 0 hour) and after 1, 2, 6, 10, 15, 18, and 24 hours of administration, blood was sampled from caudal vein for the detection of empty stomach (fasting for 2 hours) blood sugar value. The average blood sugar value was calculated and time activity curve was made (FIG. 4).
The average blood sugar value was calculated and time activity curve was made (FIG. 5).

[2] = test system: Type 1 diabetes model of New Zealand albino rabbits; test: Blood sugar lowering experiment on Type 1 diabetes model (IDDM) rabbits; assay type: in vivo; conditions: subcutaneous 0.2 mg/kg; for hypoglycemic activity: rabbit Type 1 diabetes model; for time the blood sugar lowering effect may sustain: tetraoxypyrimidine rabbits, empty stomach blood sugar
Experimental: 40 male New Zealand albino rabbits (purchased from the Third Military Medical Univ., China) with body weight of 2-3 kg were fed with water only and no food for 24 hours, and then subject to 5 ml/kg of ear vein single injection of tetraoxypyrimidine solution (with concentration of 20 mg/ml) to establish models. After the injection, the rabbits were immediately fed with food and water. After 3 days of model establishing, blood was sampled every day from ear vein after fasting for 6 hours, and blood sugar value was detected with glucometer, wherein a blood sugar value of >11.1 mmol/L indicates successful modeling. […] Groups B, C, and D were respectively subject to subcutaneous administration by a dosage of 0.2 mg/kg, and group A was injected with isovolumetric solvent. Before administration (i.e., 0 hour) and after 1, 2, 4, 8, 12, 24, 36, 48, 60, 72, 84, and 96 hours of administration, blood was sampled from ear vein for the detection of empty stomach (fasting for 6 hours) blood sugar value (Fast Glucometer, Bayer). The average blood sugar value was calculated and time activity curve was made (FIG. 6).
The average blood sugar value was calculated and time activity curve was made (FIG. 7).

[3] = test system: Beagle dog Type 1 diabetes model; test: Blood sugar lowering experiment of DesB30-20 k conjugate on Beagle dog Type 1 diabetes model; assay type: in vivo, Beagle dogs
Experimental: 20 healthy Beagle dogs (purchased from the Third Military Medical Univ., China) with body weight of 5-8 kg were fed with water only and no food for 24 hours, and then subject to foreleg subcutaneous vein injection of tetraoxypyrimidine solution (200 mg/ml) and STZ solution (120 mg/ml), with respective dosage of 50 mg/kg and 30 mg/kg, to establish Type 1 diabetes models. After the injection, the dogs were immediately fed with food and water. After 72 hours of model establishing, successful modeling was indicated by the signs of polyphagia, polydipsia, polyuria, lose weight, and blood sugar value of >11.1 mmol/L. 12 modeled dogs were randomly divided into 3 groups, 4 for each group (group A, control, group B, administration by 0.05 mg/kg, and group C, administration by 0.10 mg/kg), and subject to subcutaneous administration for one time. After 0, 2, 6, 12, 18, 24, 36, 48, 72, 96, and 120 hours of administration, blood was sampled from hindlimb vein for the detection of empty stomach (fasting for 6 hours) blood sugar value (GOD-POD method). The average blood sugar value was calculated and single administration time activity curve was made (FIG. 8). […] Then, the model animals were tested with multiple times of subcutaneous administration, with an interval of 72 hours (with a dosage of 0.05 mg/kg, 0.10 mg/kg, or isovolumetric solvent) for 6 times. From Day 1 to Day 21 after the administration, empty stomach blood sugar value was detected every three days, and blood was sampled after the last administration for pharmacokinetics experiments. […] The durations of hypoglycemic activity for single and multiple administrations are basicly the same, i.e., 72 hours. During the multiple administrations, the empty stomach blood sugar value of animals in administration groups were kept in average with about 5 mmol/L, whereas the empty stomach blood sugar value of animals in control group were kept in average with about 25 mmol/L.

[4] = in human body; cited from earlier work
[5] = in animals; cited from earlier work

Substance	hypoglycemic activity [1]	time the blood sugar lowering effect may sustain [1]	hypoglycemic activity [2]	time the blood sugar lowering effect may sustain [2]	further results
DesB30-5K: DesB30 recombinant human insulin coupled at the ε-amino group of Lys B29 to 5K mPEG-SPA via amide bond	significant hypoglycemic activity	about 8 hours	significant hypoglycemic activity	about 15 hours	
DesB30-10K: DesB30 recombinant human insulin coupled at the ε-amino group of Lys B29 to 10K mPEG-SPA via amide bond	significant hypoglycemic activity	about 12 hours	significant hypoglycemic activity	about 30 hours	
DesB30-20K: DesB30 recombinant human insulin coupled at the ε-amino group of Lys B29 to 20K mPEG-SPA via amide bond	significant hypoglycemic activity	about 18 hours	significant hypoglycemic activity	about 55 hours	hypoglycemic activity ([3]; Beagle dogs Type 1 diabetes model, 0.05 and 0.10 mg/kg): significant hypoglycemic activity; average empty stomach blood sugar value during multiple administrations ([3]; administration groups (0.05 or 0.10 mg/kg s.c., every 72 hours, 6 times), control about 25 mmol/L): about 5 mmol/L; time blood sugar is effectively lowered ([3]; single subcutaneous administration, 0.10 mg/kg): 72 h; duration of hypoglycemic activity for single and multiple administrations ([3]; single, and multiple subcutaneous administrations (interval 72 hours, 6 times)): 72 h
Ins-5K: recombinant human insulin conjugate with 5K mPEG-SPA at Lys B29, prepared as in Example 2		about 8 hours		about 15 hours	
Ins-10K: recombinant human insulin conjugate with 10K mPEG-SPA at Lys B29, prepared as in Example 3		about 12 hours		about 35 hours	
Ins-20K: recombinant human insulin conjugate with 20K mPEG-SPA at Lys B29, prepared as in Example 4		about 18 hours		about 55 hours	
insulin detemir					duration of activity [4]: 24 h; duration of activity [5]: 12 h
